Earlier results as cited in PMC12833850, “Hybridization Approach Applied to Umbelliferon and Vanilloids toward New Inhibitors of Carbonic Anhydrases IX and XII with In Vitro Antiproliferative and Anti-inflammatory Activities” (Journal of Medicinal Chemistry, 2026).

Molecular target: T1, hCA IX (Homo sapiens, UniProt Q16790)
T1 construct: made in house
Conditions: data already reported; ref Maresca and Supuran, 2010

Structure (SMILES): O=c1ccc2cc(O)ccc2o1 [Compound 2, 6-hydroxycoumarin]
- Ki: 198 nM
